Measured values as given in patent US7138361B2, “Herbicidal heterocycles” (E. I. du Pont de Nemours and Company, priority 2000, dated 2006).

Columns and labels:
Assay type in all cases: in vivo
[1] = tested on: Surinam grass (Brachiaria decumbens); test: Test B postemergence
Procedure, shortened: (§1)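 Greenhouse test: chemicals are formulated in a surfactant-containing non-phytotoxic solvent and applied either preemergence to planted seeds or postemergence to plants 2 to 18 cm tall. Response is rated visually versus controls after 13 to 15 days, 0 meaning no effect and 100 complete control.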

[2] = tested on: barnyardgrass (Echinochloa crus-galli); test: Test B postemergence
Procedure, shortened: as §1

[3] = tested on: cocklebur (Xanthium strumarium); test: Test B postemergence
Procedure, shortened: as §1

corn (Zea mays) [4] = test: Test B postemergence
Procedure, shortened: as §1

[5] = tested on: crabgrass (Digitaria sanguinalis); test: Test B postemergence
Procedure, shortened: as §1

[6] = tested on: giant foxtail (Setaria faberii); test: Test B postemergence
Procedure, shortened: as §1

[7] = tested on: morning glory (Ipomoea hederacea); test: Test B postemergence
Procedure, shortened: as §1

[8] = tested on: pigweed (Amaranthus retroflexus); test: Test B postemergence
Procedure, shortened: as §1

[9] = tested on: velvetleaf (Abutilon theophrasti); test: Test B postemergence
Procedure, shortened: as §1

[10] = tested on: wheat (Triticum aestivum); test: Test B postemergence
Procedure, shortened: as §1

wild oat (Avena fatua) = test: Test B postemergence
Procedure, shortened: as §1

Nightshade = test: Test C preemergence
Sunflower = test: Test C preemergence; conditions: Rate 125 g/ha; scale 0 to 100, 0 no effect, 100 complete control
[11] = tested on: common ragweed (Ambrosia elatior); test: Test C preemergence
Procedure, shortened: (§2)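 Test chemicals, formulated in a non-phytotoxic solvent mixture with surfactant, were applied preemergence to planted seeds or postemergence to plants 2 to 18 cm tall (1- to 4-leaf stage). After 12 to 14 days in a greenhouse, injury was visually rated against untreated controls on a 0–100 scale.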

corn (Zea mays) [12] = test: Test C preemergence
Procedure, shortened: as §2

[13] = tested on: goosegrass (Eleusine indica); test: Test C preemergence
Procedure, shortened: as §2

[14] = tested on: johnsongrass (Sorghum halepense); test: Test C preemergence
Procedure, shortened: as §2

[15] = tested on: lambsquarters (Chenopodium album); test: Test C preemergence
Procedure, shortened: as §2

[16] = tested on: morningglory (Ipomoea hederacea); test: Test C preemergence
Procedure, shortened: as §2

[17] = tested on: velvetleaf (Abutilon theophrasti); test: Test C preemergence
Procedure, shortened: as §2

[18] = tested on: yellow nutsedge (Cyperus esculentus); test: Test C preemergence
Procedure, shortened: as §2

[19] = Rate 125 g/ha, scale 0 (no effect) to 100 (complete control), 13 to 15 days
[20] = Rate 500 g/ha, scale 0 to 100, 0 is no effect, 100 is complete control, 13 to 15 days
[21] = Rate 125 g/ha, scale 0 to 100, 0 no effect, 100 complete control
[22] = Rate 250 g/ha, scale 0 to 100, 0 no effect, 100 complete control
[23] = preemergence, Rate 31 g/ha, scale 0 to 100
[24] = preemergence, Rate 62 g/ha, scale 0 to 100
[25] = preemergence, Rate 250 g/ha, scale 0 to 100, 0 no effect, 100 complete control
[26] = Rate 62 g/ha, scale 0 to 100, 0 no effect, 100 complete control
[27] = Rate 250 g/ha, scale 0 (no effect) to 100 (complete control), 13 to 15 days

CCOc1cc(N2CCC(n3ccc(C(C)(C)C)n3)C2=O)ccc1C (stereo not shown) [Compound 106]
Plant response rating, Surinam grass [1, 19]: 0 | Plant response rating, Surinam grass [1, 20]: 0 | Plant response rating, Barnyardgrass [2, 19]: 0 | Plant response rating, Barnyardgrass [2, 20]: 0 | Plant response rating, Cocklebur [3, 19]: 90 | Plant response rating, Cocklebur [3, 20]: 90 | Plant response rating, Corn (corn (Zea mays) [4]; [19]): 0 | Plant response rating, Corn (corn (Zea mays) [4]; [20]): 0 | Plant response rating, Crabgrass [5, 19]: 0 | Plant response rating, Crabgrass [5, 20]: 0 | Plant response rating, Foxtail, Giant [6, 19]: 0 | Plant response rating, Foxtail, Giant [6, 20]: 0 | Plant response rating, Morningglory [7, 20]: 100 | Plant response rating, Pigweed [8, 20]: 90 | Plant response rating, Velvetleaf [9, 20]: 80 | Plant response rating, Wheat [10, 20]: 0 | Plant response rating, Wild Oat (wild oat (Avena fatua); [20]): 0 | Plant response rating, Nightshade (Nightshade; Rate 31 g/ha, scale 0 to 100): 100 | Plant response rating, Nightshade (Nightshade; Rate 62 g/ha, scale 0 to 100): 100 | Plant response rating, Nightshade (Nightshade; [21]): 100 | Plant response rating, Nightshade (Nightshade; [22]): 100 | Plant response rating, Sunflower (Sunflower): 80 | Plant response rating, Ragweed, Common [11, 21]: 100 | Plant response rating, Ragweed, Common [11, 23]: 80 | Plant response rating, Ragweed, Common [11, 24]: 100 | Plant response rating, Ragweed, Common [11, 25]: 100 | Plant response rating, Corn (corn (Zea mays) [12]; [21]): 0 | Plant response rating, Corn (corn (Zea mays) [12]; [23]): 0 | Plant response rating, Corn (corn (Zea mays) [12]; [24]): 0 | Plant response rating, Corn (corn (Zea mays) [12]; [25]): 40 | Plant response rating, Goosegrass [13, 21]: 100 | Plant response rating, Goosegrass [13, 23]: 100 | Plant response rating, Goosegrass [13, 24]: 100 | Plant response rating, Goosegrass [13, 25]: 100 | Plant response rating, Johnsongrass [14, 21]: 100 | Plant response rating, Johnsongrass [14, 23]: 30 | Plant response rating, Johnsongrass [14, 24]: 70 | Plant response rating, Johnsongrass [14, 25]: 100 | Plant response rating, Lambsquarters [15, 21]: 100 | Plant response rating, Lambsquarters [15, 23]: 100 | Plant response rating, Lambsquarters [15, 24]: 100 | Plant response rating, Lambsquarters [15, 25]: 100 | Plant response rating, Morningglory [16, 21]: 100 | Plant response rating, Morningglory [16, 23]: 80 | Plant response rating, Morningglory [16, 24]: 90 | Plant response rating, Morningglory [16, 25]: 100 | Plant response rating, Velvetleaf [17, 21]: 100 | Plant response rating, Velvetleaf [17, 23]: 90 | Plant response rating, Velvetleaf [17, 24]: 100 | Plant response rating, Velvetleaf [17, 25]: 100 | Plant response rating, Nutsedge [18, 21]: 80 | Plant response rating, Nutsedge [18, 23]: 10 | Plant response rating, Nutsedge [18, 24]: 10 | Plant response rating, Nutsedge [18, 25]: 100

Cc1ccc(N2CCC(n3ccc(C(C)(C)C)n3)C2=O)cc1OCCCl (stereo not shown) [Compound 109]
Plant response rating, Surinam grass [1, 26]: 0 | Plant response rating, Surinam grass [1, 19]: 0 | Plant response rating, Surinam grass [1, 27]: 20 | Plant response rating, Surinam grass [1, 20]: 0 | Plant response rating, Barnyardgrass [2, 26]: 0 | Plant response rating, Barnyardgrass [2, 19]: 0 | Plant response rating, Barnyardgrass [2, 27]: 0 | Plant response rating, Barnyardgrass [2, 20]: 0 | Plant response rating, Cocklebur [3, 26]: 60 | Plant response rating, Cocklebur [3, 19]: 40 | Plant response rating, Cocklebur [3, 27]: 70 | Plant response rating, Cocklebur [3, 20]: 90 | Plant response rating, Corn (corn (Zea mays) [4]; [26]): 0 | Plant response rating, Corn (corn (Zea mays) [4]; [19]): 0 | Plant response rating, Corn (corn (Zea mays) [4]; [27]): 0 | Plant response rating, Corn (corn (Zea mays) [4]; [20]): 0 | Plant response rating, Crabgrass [5, 26]: 0 | Plant response rating, Crabgrass [5, 19]: 0 | Plant response rating, Crabgrass [5, 27]: 0 | Plant response rating, Crabgrass [5, 20]: 0 | Plant response rating, Foxtail, Giant [6, 26]: 0 | Plant response rating, Foxtail, Giant [6, 19]: 0 | Plant response rating, Foxtail, Giant [6, 27]: 20 | Plant response rating, Foxtail, Giant [6, 20]: 0 | Plant response rating, Morningglory [7, 26]: 90 | Plant response rating, Morningglory [7, 27]: 100 | Plant response rating, Morningglory [7, 20]: 100 | Plant response rating, Pigweed [8, 26]: 50 | Plant response rating, Pigweed [8, 27]: 60 | Plant response rating, Pigweed [8, 20]: 90 | Plant response rating, Velvetleaf [9, 26]: 0 | Plant response rating, Velvetleaf [9, 27]: 80 | Plant response rating, Velvetleaf [9, 20]: 80 | Plant response rating, Wheat [10, 26]: 0 | Plant response rating, Wheat [10, 27]: 0 | Plant response rating, Wheat [10, 20]: 0 | Plant response rating, Wild Oat (wild oat (Avena fatua); [26]): 0 | Plant response rating, Wild Oat (wild oat (Avena fatua); [27]): 0 | Plant response rating, Wild Oat (wild oat (Avena fatua); [20]): 0 | Plant response rating, Nightshade (Nightshade; Rate 31 g/ha, scale 0 to 100): 50 | Plant response rating, Nightshade (Nightshade; Rate 62 g/ha, scale 0 to 100): 90 | Plant response rating, Nightshade (Nightshade; [21]): 100 | Plant response rating, Nightshade (Nightshade; [22]): 100 | Plant response rating, Sunflower (Sunflower): 90 | Plant response rating, Ragweed, Common [11, 21]: 100 | Plant response rating, Ragweed, Common [11, 23]: 10 | Plant response rating, Ragweed, Common [11, 24]: 90 | Plant response rating, Ragweed, Common [11, 25]: 100 | Plant response rating, Corn (corn (Zea mays) [12]; [21]): 0 | Plant response rating, Corn (corn (Zea mays) [12]; [23]): 0 | Plant response rating, Corn (corn (Zea mays) [12]; [24]): 0 | Plant response rating, Corn (corn (Zea mays) [12]; [25]): 0 | Plant response rating, Goosegrass [13, 21]: 100 | Plant response rating, Goosegrass [13, 23]: 90 | Plant response rating, Goosegrass [13, 24]: 100 | Plant response rating, Goosegrass [13, 25]: 100 | Plant response rating, Johnsongrass [14, 21]: 50 | Plant response rating, Johnsongrass [14, 23]: 0 | Plant response rating, Johnsongrass [14, 24]: 10 | Plant response rating, Johnsongrass [14, 25]: 50 | Plant response rating, Lambsquarters [15, 21]: 100 | Plant response rating, Lambsquarters [15, 23]: 100 | Plant response rating, Lambsquarters [15, 24]: 100 | Plant response rating, Lambsquarters [15, 25]: 100 | Plant response rating, Morningglory [16, 21]: 100 | Plant response rating, Morningglory [16, 23]: 30 | Plant response rating, Morningglory [16, 24]: 90 | Plant response rating, Morningglory [16, 25]: 100 | Plant response rating, Velvetleaf [17, 21]: 100 | Plant response rating, Velvetleaf [17, 23]: 50 | Plant response rating, Velvetleaf [17, 24]: 100 | Plant response rating, Velvetleaf [17, 25]: 100 | Plant response rating, Nutsedge [18, 21]: 0 | Plant response rating, Nutsedge [18, 23]: 0 | Plant response rating, Nutsedge [18, 24]: 0 | Plant response rating, Nutsedge [18, 25]: 0
